Patent US7304174B2, “CaSR antagonist” (Japan Tobacco Inc., priority 2003, dated 2007)

Tests used:
PTH release = conditions: cited from earlier work
[1] = system: osteoblast and osteoclast; conditions: in vitro; cited from earlier work
PTH secretion = test: Reproductive test of NPS-2143 of the reference (PTH secretion); format: in vivo
[2] = OVX rat, 100 μmol/kg; cited from earlier work

CC(C)(Cc1ccc2ccccc2c1)NC[C@@H](O)COc1cccc(Cl)c1C#N [NPS-2143]
Blood PTH concentration 4 hours later (PTH release; OVX rat, 100 μmol/kg): about 140 pg/ml | Blood PTH concentration in 30 minutes (PTH release; OVX rat, rat PTH (1-34) 5 μg/kg, NPS-2143 100 μmol/kg): about 115 pg/ml | Effect on bone (bone density) (PTH release; OVX rats, oral): free of bone decrease or bone increase | Release of PTH (PTH release; OVX rats, oral): significantly promotes release of PTH | Direct effect on osteoblast and osteoclast [1]: did not show any direct effect | PTH secretion promoting action (PTH secretion): sustained secretion promoting action | Blood concentration of NPS-2143 8 hours after the administration [2]: not less than 100 ng/ml | Blood concentration of NPS-2143 24 hours later [2]: ≤ 10 ng/mL
